# ChEMBL document CHEMBL4402594, “Interrogating the Lactate Dehydrogenase Tetramerization Site Using (Stapled) Peptides” (J Med Chem, 2020)
# Counter-ions that a name gives are not always drawn. Calls of active or inactive are those of the source. No cut-off for these calls is given here. Peptide text beside a SMILES is read from it.
# Key:
# [1] = molecular target: T1, L-lactate dehydrogenase B chain (Homo sapiens, UniProt P07195); experiment: Binding affinity to truncated human N-terminal His6-tagged LDH-H expressed in Escherichia coli Rosetta (DE3) after 5 mins by Red-NHS fluorescence dye-based microscale thermophoresis analysis
# [2] = molecular target: T1, L-lactate dehydrogenase B chain; experiment: Binding affinity to truncated human N-terminal His6-tagged LDH-H expressed in Escherichia coli Rosetta (DE3) in sodium phosphate buffer at pH 7.6 by WaterLOGSY NMR analysis
# Target sequence in this assay (P07195 2-334 limits assumed): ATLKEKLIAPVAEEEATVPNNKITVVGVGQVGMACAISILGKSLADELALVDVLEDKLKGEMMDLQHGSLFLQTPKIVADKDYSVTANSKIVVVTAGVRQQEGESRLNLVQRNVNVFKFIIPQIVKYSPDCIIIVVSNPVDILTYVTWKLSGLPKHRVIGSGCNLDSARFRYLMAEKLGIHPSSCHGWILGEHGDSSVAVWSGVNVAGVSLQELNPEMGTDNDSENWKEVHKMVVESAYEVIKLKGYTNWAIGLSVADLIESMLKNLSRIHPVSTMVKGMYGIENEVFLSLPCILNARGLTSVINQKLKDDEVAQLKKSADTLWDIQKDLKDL
# [3] = molecular target: T1, L-lactate dehydrogenase B chain; experiment: Competitive binding affinity to recombinant full length human His-tagged LDH-1 (1 to 322 residues) expressed in Escherichia coli assessed as protein-compound interaction at N-terminal domain after 5 mins by Red-NHS fluorescence dye based microscale thermophoresis analysis
# Target sequence in this assay (P07195 2-334 limits assumed): as above
# [4] = molecular target: L-lactate dehydrogenase A chain (Oryctolagus cuniculus) (UniProt P13491); experiment: Binding affinity to rabbit LDH-M assessed as acid-induced dimerization by measuring fluorescence recovery at pH 5 by nano differential scanning fluorimetry analysis
# [5] = molecular target: L-lactate dehydrogenase A chain (Oryctolagus cuniculus) (UniProt P13491); experiment: Binding affinity to rabbit LDH-5 assessed as acid-induced dimerization by measuring fluorescence recovery at pH 7.6 by nano differential scanning fluorimetry analysis
# [6] = molecular target: T1, L-lactate dehydrogenase B chain; experiment: Binding affinity to recombinant full length human His-tagged LDH-1 (1 to 322 residues) expressed in Escherichia coli assessed as thermal denaturation up to 500 uM by nano differential scanning fluorimetry analysis
# Target sequence in this assay (P07195 2-334 limits assumed): as above
# [7] = molecular target: T2, L-lactate dehydrogenase A chain (Homo sapiens, UniProt P00338); experiment: Competitive binding affinity to human N-terminal His6-tagged LDH-5 expressed in Escherichia coli Rosetta (DE3) assessed as protein-compound interaction at N-terminal domain after 5 mins by Red-NHS fluorescence dye-based microscale thermophoresis analysis
# [8] = Conformational stability in sodium phosphate buffer assessed as increase in alpha-helicity with strong theta 206 band formation at 100 uM by circular dichroism method; type: physicochemical
# [9] = molecular target: T2, L-lactate dehydrogenase A chain; experiment: Binding affinity to human N-terminal His6-tagged LDH-5 expressed in Escherichia coli Rosetta (DE3) assessed as thermal denaturation up to 500 uM by nano differential scanning fluorimetry analysis
# [10] = molecular target: L-lactate dehydrogenase B chain (Homo sapiens, UniProt P07195, L4A); experiment: Binding affinity full length human N-terminal His6-tagged LDH-H L3A mutant expressed in Escherichia coli Rosetta (DE3) assessed as tetrameric disruption by nano differential scanning fluorimetry analysis
# Sequence of L-lactate dehydrogenase B chain (Homo sapiens, UniProt P07195, L4A) (P07195 2-334 L4A limits assumed): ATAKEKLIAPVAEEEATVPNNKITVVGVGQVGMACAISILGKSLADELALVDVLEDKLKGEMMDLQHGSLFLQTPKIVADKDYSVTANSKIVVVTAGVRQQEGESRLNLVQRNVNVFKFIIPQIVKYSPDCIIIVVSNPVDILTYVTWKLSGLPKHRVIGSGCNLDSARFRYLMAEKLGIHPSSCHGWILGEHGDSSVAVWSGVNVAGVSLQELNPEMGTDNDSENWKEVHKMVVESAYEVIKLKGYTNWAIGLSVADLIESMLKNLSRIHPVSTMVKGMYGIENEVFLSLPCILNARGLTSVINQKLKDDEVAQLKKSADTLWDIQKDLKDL
# [11] = molecular target: T1, L-lactate dehydrogenase B chain; experiment: Binding affinity to full length human N-terminal His6-tagged LDH-H expressed in Escherichia coli Rosetta (DE3) assessed as melting temperature heated up to 95 degree C for 3 mins by nano differential scanning fluorimetry analysis
# Target sequence in this assay (P07195 2-334 limits assumed): as the sequence (P07195 2-334 limits assumed) above
# [12] = test system: L-lactate dehydrogenase B chain (Homo sapiens), P07195 [L4A]; experiment: Binding affinity to full length human N-terminal His6-tagged LDH-H L3A mutant expressed in Escherichia coli Rosetta (DE3) assessed as change in melting temperature heated up to 95 degree C for 3 mins by nano differential scanning fluorimetry analysis
# Sequence of L-lactate dehydrogenase B chain (Homo sapiens), P07195 [L4A] (P07195 whole entry L4A): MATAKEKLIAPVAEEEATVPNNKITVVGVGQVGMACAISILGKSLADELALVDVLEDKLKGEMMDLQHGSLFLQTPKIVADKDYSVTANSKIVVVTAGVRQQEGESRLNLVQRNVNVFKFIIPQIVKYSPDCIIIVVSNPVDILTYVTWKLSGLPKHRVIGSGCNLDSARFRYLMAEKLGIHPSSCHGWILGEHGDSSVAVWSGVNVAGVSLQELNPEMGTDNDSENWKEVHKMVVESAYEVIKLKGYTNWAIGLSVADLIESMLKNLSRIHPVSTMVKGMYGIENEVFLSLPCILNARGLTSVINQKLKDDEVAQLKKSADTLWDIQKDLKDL
# [13] = molecular target: L-lactate dehydrogenase B chain (Homo sapiens, UniProt P07195, K5A); experiment: Binding affinity full length human N-terminal His6-tagged LDH-H K4A mutant expressed in Escherichia coli Rosetta (DE3) assessed as tetrameric disruption by nano differential scanning fluorimetry analysis
# [14] = test system: L-lactate dehydrogenase B chain (Homo sapiens), P07195 [T3A]; experiment: Binding affinity to full length human N-terminal His6-tagged LDH-H T2A mutant expressed in Escherichia coli Rosetta (DE3) assessed as melting temperature heated up to 95 degree C for 3 mins by nano differential scanning fluorimetry analysis
# Sequence of L-lactate dehydrogenase B chain (Homo sapiens), P07195 [T3A] (P07195 whole entry T3A): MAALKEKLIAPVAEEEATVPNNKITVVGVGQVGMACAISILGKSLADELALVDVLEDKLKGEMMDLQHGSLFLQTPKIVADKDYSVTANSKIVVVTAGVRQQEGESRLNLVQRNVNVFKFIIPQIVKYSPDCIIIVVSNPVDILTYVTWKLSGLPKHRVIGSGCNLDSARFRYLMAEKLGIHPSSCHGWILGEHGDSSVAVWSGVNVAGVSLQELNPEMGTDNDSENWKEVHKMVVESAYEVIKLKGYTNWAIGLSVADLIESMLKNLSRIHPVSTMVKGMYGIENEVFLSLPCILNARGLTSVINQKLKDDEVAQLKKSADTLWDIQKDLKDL
# [15] = test system: L-lactate dehydrogenase B chain (Homo sapiens), P07195 [L4A]; experiment: Binding affinity to full length human N-terminal His6-tagged LDH-H L3A mutant expressed in Escherichia coli Rosetta (DE3) assessed as melting temperature heated up to 95 degree C for 3 mins by nano differential scanning fluorimetry analysis
# [16] = molecular target: L-lactate dehydrogenase B chain (Homo sapiens, UniProt P07195, I9A); experiment: Binding affinity full length human N-terminal His6-tagged LDH-H I8A mutant expressed in Escherichia coli Rosetta (DE3) assessed as tetrameric disruption by nano differential scanning fluorimetry analysis
# Sequence of L-lactate dehydrogenase B chain (Homo sapiens, UniProt P07195, I9A) (P07195 2-334 I9A limits assumed): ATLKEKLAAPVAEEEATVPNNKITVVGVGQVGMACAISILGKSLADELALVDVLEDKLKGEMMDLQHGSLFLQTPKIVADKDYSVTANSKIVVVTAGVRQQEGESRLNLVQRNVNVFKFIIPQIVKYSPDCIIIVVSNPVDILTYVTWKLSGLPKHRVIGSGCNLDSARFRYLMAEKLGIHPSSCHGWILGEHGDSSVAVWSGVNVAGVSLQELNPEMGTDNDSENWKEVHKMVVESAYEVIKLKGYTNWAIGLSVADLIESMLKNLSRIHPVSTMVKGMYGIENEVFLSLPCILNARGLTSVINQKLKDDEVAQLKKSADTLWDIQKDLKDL
# [17] = test system: L-lactate dehydrogenase B chain (Homo sapiens), P07195 [L8A]; experiment: Binding affinity to full length human N-terminal His6-tagged LDH-H L7A mutant expressed in Escherichia coli Rosetta (DE3) assessed as melting temperature heated up to 95 degree C for 3 mins by nano differential scanning fluorimetry analysis
# Sequence of L-lactate dehydrogenase B chain (Homo sapiens), P07195 [L8A] (P07195 whole entry L8A): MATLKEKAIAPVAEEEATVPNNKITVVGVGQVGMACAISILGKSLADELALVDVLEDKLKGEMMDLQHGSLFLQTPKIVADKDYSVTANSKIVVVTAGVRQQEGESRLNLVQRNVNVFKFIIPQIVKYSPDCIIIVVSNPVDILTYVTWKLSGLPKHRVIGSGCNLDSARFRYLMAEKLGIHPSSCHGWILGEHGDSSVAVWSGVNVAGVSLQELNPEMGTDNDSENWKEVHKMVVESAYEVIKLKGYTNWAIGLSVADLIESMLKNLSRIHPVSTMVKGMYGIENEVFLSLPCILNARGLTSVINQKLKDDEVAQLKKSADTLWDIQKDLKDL
# [18] = molecular target: L-lactate dehydrogenase B chain (Homo sapiens, UniProt P07195, T3A); experiment: Binding affinity full length human N-terminal His6-tagged LDH-H T2A mutant expressed in Escherichia coli Rosetta (DE3) assessed as tetrameric disruption by nano differential scanning fluorimetry analysis
# Sequence of L-lactate dehydrogenase B chain (Homo sapiens, UniProt P07195, T3A) (P07195 2-334 T3A limits assumed): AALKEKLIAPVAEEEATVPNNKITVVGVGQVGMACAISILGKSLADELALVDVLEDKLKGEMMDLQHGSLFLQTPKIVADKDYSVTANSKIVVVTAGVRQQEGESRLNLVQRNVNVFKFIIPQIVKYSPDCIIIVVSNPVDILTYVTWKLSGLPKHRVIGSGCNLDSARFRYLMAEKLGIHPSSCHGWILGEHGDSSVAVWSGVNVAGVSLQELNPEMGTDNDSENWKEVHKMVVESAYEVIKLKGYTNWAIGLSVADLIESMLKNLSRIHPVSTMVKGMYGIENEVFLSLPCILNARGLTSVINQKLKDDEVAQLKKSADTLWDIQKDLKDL
# [19] = test system: L-lactate dehydrogenase B chain (Homo sapiens), P07195 [K5A]; experiment: Binding affinity to full length human N-terminal His6-tagged LDH-H K4A mutant expressed in Escherichia coli Rosetta (DE3) assessed as melting temperature heated up to 95 degree C for 3 mins by nano differential scanning fluorimetry analysis
# Sequence of L-lactate dehydrogenase B chain (Homo sapiens), P07195 [K5A] (P07195 whole entry K5A): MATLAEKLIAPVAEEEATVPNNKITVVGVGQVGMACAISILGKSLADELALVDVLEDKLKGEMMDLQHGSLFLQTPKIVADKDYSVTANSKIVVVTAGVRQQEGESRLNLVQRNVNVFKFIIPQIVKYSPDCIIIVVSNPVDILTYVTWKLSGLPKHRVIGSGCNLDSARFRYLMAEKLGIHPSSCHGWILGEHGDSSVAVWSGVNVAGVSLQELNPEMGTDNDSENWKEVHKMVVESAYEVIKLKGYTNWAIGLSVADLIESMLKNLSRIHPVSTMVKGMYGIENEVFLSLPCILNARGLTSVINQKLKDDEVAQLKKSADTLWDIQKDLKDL
# [20] = test system: L-lactate dehydrogenase B chain (Homo sapiens), P07195 [K7A]; experiment: Binding affinity to full length human N-terminal His6-tagged LDH-H K6A mutant expressed in Escherichia coli Rosetta (DE3) assessed as melting temperature heated up to 95 degree C for 3 mins by nano differential scanning fluorimetry analysis
# Sequence of L-lactate dehydrogenase B chain (Homo sapiens), P07195 [K7A] (P07195 whole entry K7A): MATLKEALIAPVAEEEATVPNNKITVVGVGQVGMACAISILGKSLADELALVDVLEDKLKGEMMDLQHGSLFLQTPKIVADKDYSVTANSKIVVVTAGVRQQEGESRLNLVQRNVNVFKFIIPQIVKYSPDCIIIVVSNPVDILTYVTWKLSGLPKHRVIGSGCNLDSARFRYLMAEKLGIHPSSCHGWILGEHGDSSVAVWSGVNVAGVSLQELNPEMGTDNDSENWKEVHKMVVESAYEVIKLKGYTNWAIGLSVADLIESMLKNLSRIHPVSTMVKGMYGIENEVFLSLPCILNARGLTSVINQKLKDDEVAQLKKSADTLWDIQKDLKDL
# [21] = test system: L-lactate dehydrogenase B chain (Homo sapiens), P07195 [I9A]; experiment: Binding affinity to full length human N-terminal His6-tagged LDH-H I8A mutant expressed in Escherichia coli Rosetta (DE3) assessed as melting temperature heated up to 95 degree C for 3 mins by nano differential scanning fluorimetry analysis
# Sequence of L-lactate dehydrogenase B chain (Homo sapiens), P07195 [I9A] (P07195 whole entry I9A, the tested form may be a part): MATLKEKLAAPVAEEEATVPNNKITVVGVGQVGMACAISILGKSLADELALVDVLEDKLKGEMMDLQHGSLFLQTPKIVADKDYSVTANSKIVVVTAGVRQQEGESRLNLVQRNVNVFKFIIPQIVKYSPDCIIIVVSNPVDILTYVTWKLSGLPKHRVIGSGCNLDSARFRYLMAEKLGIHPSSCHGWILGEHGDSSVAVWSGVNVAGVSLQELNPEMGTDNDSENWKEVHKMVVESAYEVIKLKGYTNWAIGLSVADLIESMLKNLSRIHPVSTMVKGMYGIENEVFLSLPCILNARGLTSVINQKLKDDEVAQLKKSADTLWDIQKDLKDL
# [22] = molecular target: L-lactate dehydrogenase B chain (Homo sapiens, UniProt P07195, K7A); experiment: Binding affinity full length human N-terminal His6-tagged LDH-H K6A mutant expressed in Escherichia coli Rosetta (DE3) assessed as tetrameric disruption by nano differential scanning fluorimetry analysis
# Sequence of L-lactate dehydrogenase B chain (Homo sapiens, UniProt P07195, K7A) (P07195 2-334 K7A limits assumed): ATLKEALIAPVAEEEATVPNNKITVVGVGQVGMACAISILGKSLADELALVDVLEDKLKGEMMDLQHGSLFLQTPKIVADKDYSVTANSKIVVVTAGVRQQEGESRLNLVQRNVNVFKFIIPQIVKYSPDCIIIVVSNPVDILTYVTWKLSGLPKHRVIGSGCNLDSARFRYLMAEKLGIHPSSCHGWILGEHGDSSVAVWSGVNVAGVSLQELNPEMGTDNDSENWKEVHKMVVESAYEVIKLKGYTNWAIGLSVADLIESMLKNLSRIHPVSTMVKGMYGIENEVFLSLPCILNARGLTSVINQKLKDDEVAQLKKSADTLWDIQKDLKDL
# [23] = test system: L-lactate dehydrogenase B chain (Homo sapiens), P07195 [I9A]; experiment: Binding affinity to full length human N-terminal His6-tagged LDH-H I8A mutant expressed in Escherichia coli Rosetta (DE3) assessed as changed in melting temperature heated up to 95 degree C for 3 mins by nano differential scanning fluorimetry analysis
# [24] = molecular target: T1, L-lactate dehydrogenase B chain; experiment: Binding affinity to truncated human N-terminal His6-tagged LDH-H expressed in Escherichia coli Rosetta (DE3) assessed as melting temperature heated up to 95 degree C for 3 mins by nano differential scanning fluorimetry analysis
# Target sequence in this assay (P07195 2-334 limits assumed): as the sequence (P07195 2-334 limits assumed) above
# [25] = test system: L-lactate dehydrogenase B chain (Homo sapiens), P07195 [E6A]; experiment: Binding affinity to full length human N-terminal His6-tagged LDH-H E5A mutant expressed in Escherichia coli Rosetta (DE3) assessed as melting temperature heated up to 95 degree C for 3 mins by nano differential scanning fluorimetry analysis
# Sequence of L-lactate dehydrogenase B chain (Homo sapiens), P07195 [E6A] (P07195 whole entry E6A): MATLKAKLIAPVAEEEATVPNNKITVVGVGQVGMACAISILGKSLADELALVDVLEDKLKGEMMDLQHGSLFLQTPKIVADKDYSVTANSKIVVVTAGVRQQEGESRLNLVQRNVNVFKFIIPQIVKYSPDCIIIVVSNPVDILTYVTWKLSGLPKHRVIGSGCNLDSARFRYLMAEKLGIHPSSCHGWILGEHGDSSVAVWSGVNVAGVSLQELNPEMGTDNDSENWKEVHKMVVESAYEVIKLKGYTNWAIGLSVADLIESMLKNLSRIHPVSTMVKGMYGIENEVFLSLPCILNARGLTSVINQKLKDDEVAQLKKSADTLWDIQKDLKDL
# [26] = molecular target: T1, L-lactate dehydrogenase B chain; experiment: Binding affinity to full length human N-terminal His6-tagged LDH-H expressed in Escherichia coli Rosetta (DE3) assessed as effect on tetramerization site at 100 to 200 uM in sodium phosphate buffer at pH 7.6 by WaterLOGSY NMR analysis
# Target sequence in this assay (P07195 2-334 limits assumed): as the sequence (P07195 2-334 limits assumed) above
# [27] = Conformational stability in sodium phosphate buffer assessed as helical structural propensity at 200 uM and pH 7.6 at 25 degree C by circular dichroism method; type: physicochemical; conditions: pH 7.6, 200 µM
# [28] = molecular target: T1, L-lactate dehydrogenase B chain; experiment: Binding affinity to full length human N-terminal His6-tagged LDH-H expressed in Escherichia coli Rosetta (DE3) in sodium phosphate buffer at pH 7.6 by WaterLOGSY NMR analysis
# Target sequence in this assay (P07195 whole entry, the tested form may be a part): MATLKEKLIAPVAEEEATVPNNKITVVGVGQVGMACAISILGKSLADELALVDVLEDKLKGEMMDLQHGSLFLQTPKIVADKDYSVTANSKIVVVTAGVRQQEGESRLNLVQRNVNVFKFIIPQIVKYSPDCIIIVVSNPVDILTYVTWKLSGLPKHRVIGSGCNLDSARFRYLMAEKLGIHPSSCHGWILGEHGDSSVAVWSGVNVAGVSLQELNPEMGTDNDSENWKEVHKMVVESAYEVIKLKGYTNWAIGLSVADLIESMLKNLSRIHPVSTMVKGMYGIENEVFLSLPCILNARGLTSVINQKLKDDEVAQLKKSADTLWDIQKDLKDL
# [29] = Conformational stability in water assessed as helical structural propensity by 2D NMR-ROESY analysis; type: physicochemical; conditions: buffer
# [30] = molecular target: L-lactate dehydrogenase A chain (Oryctolagus cuniculus) (UniProt P13491); experiment: Binding affinity to rabbit LDH-5 assessed as acid-induced dimerization by measuring fluorescence recovery at 50 uM pH 7.6 by nano differential scanning fluorimetry analysis
# [31] = molecular target: T1, L-lactate dehydrogenase B chain; experiment: Binding affinity to recombinant full length human His-tagged LDH-1 (1 to 322 residues) expressed in Escherichia coli by WaterLOGSY NMR analysis
# Target sequence in this assay (P07195 whole entry, the tested form may be a part): as above
# [32] = molecular target: T1, L-lactate dehydrogenase B chain; experiment: Binding affinity to full length human N-terminal His6-tagged LDH-H expressed in Escherichia coli Rosetta (DE3) assessed as saturation transfer at lipophilic residues at 800 uM in sodium phosphate buffer at pH 7.6 by WaterLOGSY NMR analysis
# [33] = Conformational stability in water assessed as helical structural propensity by circular dichroism method; type: physicochemical; conditions: buffer
# [34] = Conformational stability in sodium phosphate buffer assessed as increase in alpha-helicity with theta 222 band formation at 100 uM by circular dichroism method; type: physicochemical
molecule,measurement,setting,value
"CC[C@H](C)[C@@H]1NC(=O)[C@H](CC(C)C)NC(=O)[C@@H](NC(=O)[C@H](CCC(=O)O)NC(=O)[C@H](CCCCN)NC(=O)[C@H](CC(C)C)NC(=O)[C@@H](NC(=O)[C@H](C)N)[C@@H](C)O)CSCc2cccc(c2)CSC[C@@H](C(N)=O)NC(=O)[C@H](C)NC1=O (HELM PEPTIDE1{A.T.L.K.E.C.L.I.A.C.[am]}|CHEM1{[c1cc(C[*:1])cc(C[*:2])c1]}$PEPTIDE1,CHEM1,6:R3-1:R1|PEPTIDE1,CHEM1,10:R3-1:R2$$$V2.0)",Kd,[1],> 1 mM
"CC[C@H](C)[C@@H]1NC(=O)[C@H](CC(C)C)NC(=O)[C@@H](NC(=O)[C@H](CCC(=O)O)NC(=O)[C@H](CCCCN)NC(=O)[C@H](CC(C)C)NC(=O)[C@@H](NC(=O)[C@H](C)N)[C@@H](C)O)CCCCNC1=O (HELM PEPTIDE1{A.T.L.K.E.K.L.I}$PEPTIDE1,PEPTIDE1,6:R3-8:R2$$$V2.0)",Kd,[1],> 1 mM
CC[C@H](C)[C@H](NC(=O)[C@H](CC(C)C)NC(=O)C(C)(C)NC(=O)[C@H](CCC(=O)O)NC(=O)[C@H](CCCCN)NC(=O)[C@H](CC(C)C)NC(=O)[C@@H](NC(=O)[C@H](C)N)[C@@H](C)O)C(N)=O (HELM PEPTIDE1{A.T.L.K.E.[Aib].L.I.[am]}$$$$V2.0),Activity,[1],inactive
same,Activity,[2],Active
CC[C@H](C)[C@H](NC(=O)[C@H](CC(C)C)NC(=O)[C@H](CCCCN)NC(=O)[C@H](CCC(=O)O)NC(=O)C(C)(C)NC(=O)[C@H](CC(C)C)NC(=O)[C@@H](NC(=O)[C@H](C)N)[C@@H](C)O)C(N)=O (HELM PEPTIDE1{A.T.L.[Aib].E.K.L.I.[am]}$$$$V2.0),Activity,[1],inactive
same,Activity,[2],Active
"CC[C@H](C)C(NC(=O)[C@H](CC(C)C)NC(=O)[C@H](CCCCN)NC(=O)[C@H](CCC(=O)O)NC(=O)[C@@H]1CSCc2cccc(c2)CSC[C@H](N)C(=O)N[C@@H](C)C(=O)N[C@@H]([C@@H](C)O)C(=O)N[C@@H](CC(C)C)C(=O)N1)C(N)=O (stereo partly drawn) (HELM PEPTIDE1{C.A.T.L.C.E.K.L.[CC[C@H](C)C(N[*:1])C(=O)[*:2]].[am]}|CHEM1{[c1cc(C[*:1])cc(C[*:2])c1]}$PEPTIDE1,CHEM1,1:R3-1:R1|PEPTIDE1,CHEM1,5:R3-1:R2$$$V2.0)",Kd,[1],> 1 mM
"CC[C@H](C)[C@H](NC(=O)[C@H](CC(C)C)NC(=O)[C@H](CCCCN)NC(=O)[C@@H]1CSCc2cccc(c2)CSC[C@H](N)C(=O)N[C@@H]([C@@H](C)O)C(=O)N[C@@H](CC(C)C)C(=O)N[C@@H](CCCCN)C(=O)N1)C(N)=O (HELM PEPTIDE1{C.T.L.K.C.K.L.I.[am]}|CHEM1{[c1cc(C[*:1])cc(C[*:2])c1]}$PEPTIDE1,CHEM1,1:R3-1:R1|PEPTIDE1,CHEM1,5:R3-1:R2$$$V2.0)",Activity,[3],inactive
same,Activity,[4],inactive
same,Activity,[5],Active
same,Activity,[6],inactive
same,Activity,[7],inactive
same,Stability,[8],Stable
same,Activity,[9],inactive
N=C(N)N [GUANIDINE HYDROCHLORIDE],EC50,[10],624 mM
same,Tm,[11],74.5 °C
same,ΔTm,[12],13.3 °C
same,EC50,[13],991 mM
same,Tm,[14],72.4 °C
same,Tm,[15],61.2 °C
same,EC50,[16],233 mM
same,Tm,[17],55.6 °C
same,EC50,[18],978 mM
same,Tm,[19],65.8 °C
same,Tm,[20],67.9 °C
same,Tm,[21],49.9 °C
same,EC50,[22],954 mM
same,ΔTm,[23],24.6 °C
same,Tm,[24],57.5 °C
same,Tm,[25],73.3 °C
Ac-TLKEKLI-NH2,Activity,[26],inactive
same,Stability,[27],Unstable
H-AALKEKLI-NH2,Activity,[26],inactive
H-ATAKEKLI-NH2,Activity,[26],inactive
H-ATGKEKLI-NH2,Activity,[26],inactive
H-ATLAEKLI-NH2,Activity,[26],inactive
H-ATLKAKLI-NH2,Activity,[26],inactive
H-ATLKDQLI-OH,Kd,[28],1.49 mM
H-ATLKEALI-NH2,Activity,[26],inactive
H-ATLKEKAI-NH2,Activity,[26],inactive
H-ATLKEKL-NH2,Activity,[26],inactive
same,Stability,[27],Unstable
H-ATLKEKLA-NH2,Activity,[26],inactive
H-ATLKEKLG-NH2,Activity,[26],inactive
H-ATLKEKLI-NH2,Stability,[29],Unstable
same,Kd,[28],1.02 mM
same,Activity,[30],Active
same,Activity,[31],Not Active
same,Activity,[32],Active
same,Stability,[33],Unstable
same,Stability,[34],Stable
H-ATLKEKLIAPVAE-NH2,Kd,[28],1.05 mM
H-GTLKEKLI-NH2,Activity,[26],inactive
